Like-named read-outs stand apart in the source and are kept apart here.
Legend:
[1] = test system: primary human mesenchymal stem cells (MSCs); assay: Osteoinductive (OI) alkaline phosphatase (ALP) assay, dose response, ALP normalised to DNA; type: cell-based
Excerpt: (§1) Samples from several classes of small molecule compounds including, corticosteroids, glucocorticoids, oxysterols, compounds that impact the HMG coA reductase pathway and compounds that upregulate intracellular cAMP were screened for osteoinductive potential with an alkaline phosphatase (ALP) assay in primary human mesenchymal stem cells (MSCs). Sample compounds were screened over a dose range in a multiwell plate format using DNA to normalize the ALP response as a function of cell number. These dose response curves allowed for the determination of an EC50 to measure relative potency of the osteogenic response between compounds. FIG. 1 is a representative dose response curve for two of the corticosteroid compounds tested, clobetasol propionate and dexamethasone. In addition to the functional analysis, certain identified compounds were run through an in vitro L929 cytotoxicity assay to determine a CC50.

15 mm radial defect = assay: In vivo study in rabbit radial defect model, radiographs; details: Scaffold I coated intraoperatively plus autogenic bone marrow, three weeks post op
Procedure: An evaluation of two small molecule compounds, dexamethasone and 20S-hydroxycholesterol, was performed in the rabbit radial defect model. Scaffold I was coated with the compounds intraoperatively, combined with autogenic bone marrow, and implanted in a 15 mm radial defect. Radiographs were taken at 3 and 6 weeks post-operatively, after which the animals were sacrificed and explants analyzed by micro CT.

L929 = assay: In vitro L929 cytotoxicity assay (CTG); type: cell-based; details: L929 cells; read-out: Cytotox (CTG) CC50
Excerpt: as §1

MSCs [2] = assay: Relative potency: ALP assay after short exposure times, then basal media to assay completion; type: cell-based, human; details: for EC50: MSCs, then basal media
Procedure: One part of this technology may involve coating an osteoconductive scaffold with an osteoinductive small molecule compound to thereby deliver the compound locally when the scaffold is implanted. Consequently, the optimal time and concentration profile required for the compound to remain at the site in order to influence an osteogenic outcome was determined. Initially, potency was determined by looking at exposure over 6 days. In order to better understand the optimal exposure profile, MSCs were treated over a series of dose ranges for exposure times starting at 1 hour out to 4 days, after which the compound treated media was removed and the cells were allowed to continue to assay completion under basal media conditions. This allowed for the determination of the relative potency of the compounds over short exposure periods and gave an indication of the release requirements that would be necessary to achieve the desired osteogenic outcome.
FIG. 2 is a representative relative potency graph of a corticosteroid, fluticasone propionate, based on the results shown in Table 2.

[3] = Excipient testing at variable pH levels: solubility; type: physicochemical
Procedure: The goal of these experiments was to increase the solubility of the compound such that increased doses could be added to material scaffolds. In a set of experiments, the solubility of clobetasol propionate and fluticasone propionate were evaluated at three distinct pH levels with a series of excipients. Phosphate buffered solutions were prepared at pH levels 3 (Low), and 7 (Medium), and a Tris buffered solution was prepared at pH level 9 (High). Solubility of the compound in the presence of a given excipient was measured at the individual pH levels as a fold increase over the solubility of the compound with no excipient present. Data regarding the solubility of clobetasol propionate in combination with the excipients is given below in Table 3. Data regarding the solubility of fluticasone propionate in combination with the excipients is given below in Table 4.

MSCs [4] = assay: In vitro 3-D efficacy: ALP RNA expression in MSCs seeded on coated Scaffold I; type: cell-based; details: compound precoated on Scaffold I, MSCs cultured three days, versus basal conditions
Procedure: The osteoinductive potential of selected small molecule compounds were determined in vitro by seeding MSCs onto a three dimensional b-TCP polymer composite scaffold, Scaffold I, which had been coated with selected compounds prior to seeding. These cells were allowed to culture for a period of time after which they were assayed for alkaline phosphatase (ALP) RNA content, an early marker of osteogenic differentiation. FIG. 7 is a graphical illustration showing the amount of ALP RNA expression in the MSCs, expressed as a fold increase over basal conditions (standard culture conditions). In this example, dexamethasone (a control for the assay) was added to the culture media in solution whereas in all other cases the compounds were precoated on to Scaffold I followed by addition of the MSCs. The cells were then cultured for three days and assayed for their level of osteogenic response via ALP RNA expression.

[5] = primary human MSCs, exposure over 6 days, read-out: OI Assay (ALP) EC50

SMILES: CC(C)CCC[C@](C)(O)[C@H]1CC[C@H]2[C@@H]3CC=C4C[C@@H](O)CC[C@]4(C)[C@H]3CC[C@@]21C [20a-hydroxy-cholesterol]
- EC50 [1, 5]: > 12000 nM
- radiographs, periosteal response (15 mm radial defect): appeared to have an enhanced periosteal response
- CC50 (L929): > 12000 nM

SMILES: CCC(=O)O[C@]1(C(=O)SCF)[C@H](C)C[C@H]2[C@@H]3C[C@H](F)C4=CC(=O)C=C[C@]4(C)[C@@]3(F)[C@@H](O)C[C@@]21C [Fluticasone propionate]
- EC50 (MSCs [2]; 1 hr exposure, read-out: EC50 1 hr.): 0.194 nM
- EC50 (MSCs [2]; 4 hr exposure, read-out: EC50 4 hr.): 0.0422 nM
- EC50 (MSCs [2]; 24 hr exposure, read-out: EC50 24 hr.): 0.0676 nM
- EC50 (MSCs [2]; 72 hr exposure, read-out: EC50 72 hr): 0.0042 nM
- Max Osteogenic Response (MSCs [2]; time range to reach the full response of the ALP assay control (dexamethasone at 10 nM for 6 days)): 48 to 72 h
- solubility, fold increase over no excipient ([3]; excipient Captisol, pH 3 (Low), phosphate buffered): 55.01 fold
- solubility, fold increase over no excipient ([3]; excipient Captisol, pH 7 (Med), phosphate buffered): 80.81 fold
- solubility, fold increase over no excipient ([3]; excipient Captisol, pH 9 (High), Tris buffered): 67.60 fold
- solubility, fold increase over no excipient ([3]; excipient Cremophor_EL, pH 3 (Low), phosphate buffered): 94.00 fold
- solubility, fold increase over no excipient ([3]; excipient Cremophor_EL, pH 7 (Med), phosphate buffered): 138.82 fold
- solubility, fold increase over no excipient ([3]; excipient Cremophor_EL, pH 9 (High), Tris buffered): 89.92 fold
- solubility, fold increase over no excipient ([3]; excipient DMA, pH 3 (Low), phosphate buffered): 6.67 fold
- solubility, fold increase over no excipient ([3]; excipient DMA, pH 7 (Med), phosphate buffered): 8.41 fold
- solubility, fold increase over no excipient ([3]; excipient DMA, pH 9 (High), Tris buffered): 7.07 fold
- solubility, fold increase over no excipient ([3]; excipient DMSO, pH 3 (Low), phosphate buffered): 1.79 fold
- solubility, fold increase over no excipient ([3]; excipient DMSO, pH 7 (Med), phosphate buffered): 1.96 fold
- solubility, fold increase over no excipient ([3]; excipient DMSO, pH 9 (High), Tris buffered): 1.84 fold
- solubility, fold increase over no excipient ([3]; excipient Dimethyl_isosorbide, pH 3 (Low), phosphate buffered): 4.14 fold
- solubility, fold increase over no excipient ([3]; excipient Dimethyl_isosorbide, pH 7 (Med), phosphate buffered): 5.78 fold
- solubility, fold increase over no excipient ([3]; excipient Dimethyl_isosorbide, pH 9 (High), Tris buffered): 5.01 fold
- solubility, fold increase over no excipient ([3]; excipient Labrasol, pH 3 (Low), phosphate buffered): 54.03 fold
- solubility, fold increase over no excipient ([3]; excipient Labrasol, pH 7 (Med), phosphate buffered): 85.96 fold
- solubility, fold increase over no excipient ([3]; excipient Labrasol, pH 9 (High), Tris buffered): 79.23 fold
- solubility, fold increase over no excipient ([3]; excipient NMP, pH 3 (Low), phosphate buffered): 6.39 fold
- solubility, fold increase over no excipient ([3]; excipient NMP, pH 7 (Med), phosphate buffered): 9.02 fold
- solubility, fold increase over no excipient ([3]; excipient NMP, pH 9 (High), Tris buffered): 7.96 fold
- solubility, fold increase over no excipient ([3]; excipient PEG400, pH 3 (Low), phosphate buffered): 3.22 fold
- solubility, fold increase over no excipient ([3]; excipient PEG400, pH 7 (Med), phosphate buffered): 4.32 fold
- solubility, fold increase over no excipient ([3]; excipient PEG400, pH 9 (High), Tris buffered): 3.55 fold
- solubility, fold increase over no excipient ([3]; excipient PVP, pH 3 (Low), phosphate buffered): 2.21 fold
- solubility, fold increase over no excipient ([3]; excipient PVP, pH 7 (Med), phosphate buffered): 3.98 fold
- solubility, fold increase over no excipient ([3]; excipient PVP, pH 9 (High), Tris buffered): 2.73 fold
- solubility, fold increase over no excipient ([3]; excipient Propylene_glycol, pH 3 (Low), phosphate buffered): 5.63 fold
- solubility, fold increase over no excipient ([3]; excipient Propylene_glycol, pH 7 (Med), phosphate buffered): 7.89 fold
- solubility, fold increase over no excipient ([3]; excipient Propylene_glycol, pH 9 (High), Tris buffered): 5.90 fold
- solubility, fold increase over no excipient ([3]; excipient Solutol_HS_15, pH 3 (Low), phosphate buffered): 3.82 fold
- solubility, fold increase over no excipient ([3]; excipient Solutol_HS_15, pH 7 (Med), phosphate buffered): 5.00 fold
- solubility, fold increase over no excipient ([3]; excipient Solutol_HS_15, pH 9 (High), Tris buffered): 4.47 fold
- solubility, fold increase over no excipient ([3]; excipient Tweens, pH 3 (Low), phosphate buffered): 194.37 fold
- solubility, fold increase over no excipient ([3]; excipient Tweens, pH 7 (Med), phosphate buffered): 272.98 fold
- solubility, fold increase over no excipient ([3]; excipient Tweens, pH 9 (High), Tris buffered): 231.06 fold
- EC50 ([1]; MSCs, 6 days exposure, read-out: EC50 6 days): 0.0065 nM
- EC50 [1, 5]: 0.0065 nM
- CC50 (L929): > 1000 nM
- ALP RNA expression (osteogenic differentiation of MSCs) (MSCs [4]): upregulated osteogenic differentiation of MSCs significantly

Reference: patent US8642065B2, “Osteogenic promoting implants and methods of inducing bone growth” (DePuy Synthes Products, LLC, priority 2011, dated 2014)
